Data taken from publication PMC6116672, “Discovery of (phenylureido)piperidinyl benzamides as prospective inhibitors of bacterial autolysin E from Staphylococcus aureus” (Journal of Enzyme Inhibition and Medicinal Chemistry, 2018).

Target: AtlE (Staphylococcus aureus, UniProt A0A0H3JT72)
Assay: SPR binding affinity to AtlE (steady state 1:1 model)
Description: SPR experiments were performed using a Biacore T100 (GE Healthcare) equipped with a Series S sensor chip CM5 (GE Healthcare). PBS buffer (67 mM Na2HPO4, 12.5 mM KH2PO4, 70 mM NaCl, 0,05% P20, pH 7.4) was used for immobilisation of the protein. AtlE was produced as previously described[1] and attached to the surface of the chip by amine coupling. The surface of flow cells 1 and 2 was initially activated with a 10-min pulse of a 1:1 mixture of 0.4 M 1-ethyl-3–(3-dimethylaminopropyl)-carbodiimide hydrochloride and 0.1 M N-hydroxysuccinimide, according to manufacturer recommendations. AtlE was diluted into 10 mM sodium acetate buffer, pH 5.8, to a final concentration of 100 µg/mL, and injected twice for 180 s over the second flow cell. Both flow cells were blocked with a 7-min pulse of 1.0 M ethanolamine. The final immobilisation level was about 4100 RU. Screening was run at 25 °C using PBS (67 mM Na2HPO4, 12.5 mM KH2PO4 pH 7.4, 70 mM NaCl, 0.05% P20) supplemented with 1% or 5% DMSO (Merck) as the running buffer. Selected compounds from the virtual screening studies were tested at two different concentrations: 40 and 400 µM. Each compound was injected for 1 min at a flow-rate of 30 µL/min, and the dissociation was monitored for 30 s. […] KD values were determined by fitting of the data to a 1:1 steady state binding model.

AtlE, sequence (A0A0H3JT72 entry or part of it): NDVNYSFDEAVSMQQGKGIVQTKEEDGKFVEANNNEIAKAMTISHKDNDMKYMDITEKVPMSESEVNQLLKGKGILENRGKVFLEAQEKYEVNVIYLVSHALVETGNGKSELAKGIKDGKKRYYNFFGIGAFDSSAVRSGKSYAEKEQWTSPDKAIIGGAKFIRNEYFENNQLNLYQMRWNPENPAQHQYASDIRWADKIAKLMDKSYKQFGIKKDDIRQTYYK

## O=C(Nc1cccc(Cl)c1)NC1CCN(c2cccc(C(=O)N3CCc4ccccc4C3)c2)CC1 [Compound 10]
  Kd: 1900 nM
